Source: ChEMBL document CHEMBL1201862, “PubChem BioAssay data set” (2004)
Activity calls are given as the source filed them.

Assays:
[1] = target: Arf-GAP with SH3 domain, ANK repeat and PH domain-containing protein 1 (Homo sapiens, UniProt Q9ULH1); assay type: functional;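 further: biochemical fluorescence polarization dose–response screen measuring inhibition of ASAP1; ASAP1 GAP domain stimulating GTP hydrolysis by truncated human ARF1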
[2] = target: 5-hydroxytryptamine receptor 2A (Mus musculus, UniProt P35363); assay type: functional, cell-based;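 further: CHO-K1 cells with tagged receptor and beta-arrestin; agonist potency measured as compound-induced activation of the receptor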
Mu-type opioid receptor [3] = target: T1, Mu-type opioid receptor (Homo sapiens, UniProt P35372); assay type: functional, cell-based;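 on EC50: U2OS cells with beta-arrestin recruitment to OPRM1 by beta-gal complementation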
Beta-lactamase [4] = target: T2, Beta-lactamase (Pseudomonas aeruginosa, UniProt Q79MP6); experiment: inhibition of IMP-1 beta-lactamase activity – biochemical, epi-absorbance, selectivity assay for VIM-2 inhibitor project, dose response (AID 1920)
Beta-lactamase [5] = target: T2, Beta-lactamase; experiment: […] counterscreen for selective VIM-2 inhibitors: dose response biochemical high throughput screening assay to identify inhibitors of IMP-1 metallo-beta-lactamase.
Beta-lactamase [6] = target: Beta-lactamase (Salmonella choleraesuis (strain SC-B67), UniProt Q5J463); experiment: Epi-absorbance-based counterscreen for selective VIM-2 inhibitors: dose response biochemical high throughput screening assay to identify inhibitors of TEM-1 serine-beta-lactamase.
Leucine aminopeptidase = target: T3, Leucine aminopeptidase (Plasmodium falciparum 3D7, UniProt Q8IL11); experiment: P. falciparum M17LAP inhibitors, primary screen, biochemical, fluorogenic H-Leu-NHMec substrate, 1536-well (AID 1619); assay type: functional
T3 sequence (Q8IL11 whole entry): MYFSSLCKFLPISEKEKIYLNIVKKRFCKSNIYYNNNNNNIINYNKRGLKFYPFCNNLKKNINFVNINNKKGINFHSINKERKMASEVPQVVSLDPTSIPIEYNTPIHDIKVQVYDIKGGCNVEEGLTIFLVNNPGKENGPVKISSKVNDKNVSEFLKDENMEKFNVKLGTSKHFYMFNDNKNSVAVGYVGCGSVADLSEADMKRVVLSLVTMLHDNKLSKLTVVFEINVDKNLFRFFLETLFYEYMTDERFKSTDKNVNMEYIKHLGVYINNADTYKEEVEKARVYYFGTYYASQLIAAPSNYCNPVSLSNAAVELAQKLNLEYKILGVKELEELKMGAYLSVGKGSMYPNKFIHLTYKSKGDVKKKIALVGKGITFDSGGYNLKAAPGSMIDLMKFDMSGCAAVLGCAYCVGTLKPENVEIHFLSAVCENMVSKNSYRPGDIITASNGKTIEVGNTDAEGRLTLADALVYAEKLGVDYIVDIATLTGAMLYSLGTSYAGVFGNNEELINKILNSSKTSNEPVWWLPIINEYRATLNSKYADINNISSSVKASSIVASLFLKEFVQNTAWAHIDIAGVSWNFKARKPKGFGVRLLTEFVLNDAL

[7] = target: T4, Heat shock factor protein 1 (Mus musculus, UniProt P38532); experiment: enhancement of HSF1-driven luciferase signal – cell-based, NIH3T3, luminescence, dose retest, confirmation (AID 435004); assay type: functional;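 further: stress induced by proteasome inhibitor MG132 added 30 min after compound; luciferase reporter driven by HSF1 response element in NIH3T3 cells; actives raise luminescence as potentiators of the MG132 stress response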
T4 sequence (P38532 whole entry): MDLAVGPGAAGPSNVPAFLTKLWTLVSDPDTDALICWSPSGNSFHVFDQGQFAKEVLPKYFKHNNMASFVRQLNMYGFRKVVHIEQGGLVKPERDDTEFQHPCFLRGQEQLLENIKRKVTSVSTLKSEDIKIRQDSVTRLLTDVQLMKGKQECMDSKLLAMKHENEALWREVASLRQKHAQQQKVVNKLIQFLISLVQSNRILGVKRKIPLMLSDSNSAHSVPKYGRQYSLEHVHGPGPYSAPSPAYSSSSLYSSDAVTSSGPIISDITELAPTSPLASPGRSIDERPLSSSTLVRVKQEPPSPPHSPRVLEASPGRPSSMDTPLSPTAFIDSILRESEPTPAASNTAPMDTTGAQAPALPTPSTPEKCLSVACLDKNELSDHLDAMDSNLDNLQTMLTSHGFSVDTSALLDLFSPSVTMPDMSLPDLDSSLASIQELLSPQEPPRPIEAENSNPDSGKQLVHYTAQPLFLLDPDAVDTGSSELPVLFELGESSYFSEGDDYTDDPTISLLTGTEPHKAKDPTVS

fMet-Leu-Phe receptor = fMet-Leu-Phe receptor (Homo sapiens, UniProt P21462); experiment: formyl peptide receptor binders – dose response (AID 519); assay type: functional
cells = assay type: functional, cell-based
[8] = target: T5, Nuclear receptor subfamily 0 group B member 1 (Homo sapiens, UniProt P51843); assay type: functional, cell-based;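 further: HEK293T cells transfected with SF-1 and DAX-1 plus StAR promoter luciferase reporter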
T5 sequence (P51843 whole entry): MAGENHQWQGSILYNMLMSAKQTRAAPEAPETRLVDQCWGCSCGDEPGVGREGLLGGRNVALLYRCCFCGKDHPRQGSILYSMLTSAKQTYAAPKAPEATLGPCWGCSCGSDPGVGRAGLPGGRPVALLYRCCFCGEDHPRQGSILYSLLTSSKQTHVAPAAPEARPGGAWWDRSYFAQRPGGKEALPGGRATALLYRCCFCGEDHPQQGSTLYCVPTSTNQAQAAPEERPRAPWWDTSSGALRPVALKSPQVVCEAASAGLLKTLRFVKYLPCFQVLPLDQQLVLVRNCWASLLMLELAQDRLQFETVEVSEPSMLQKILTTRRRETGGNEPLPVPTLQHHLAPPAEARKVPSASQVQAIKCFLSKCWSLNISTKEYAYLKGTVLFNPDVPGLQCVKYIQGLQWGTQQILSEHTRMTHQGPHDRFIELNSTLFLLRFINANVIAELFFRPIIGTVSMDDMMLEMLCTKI

[9] = viability loss in HEK293 cells – cell-based, plate reader, cherry-picked samples, cytotoxicity control, dose response (AID 743446); assay type: functional
[10] = blockers of bursicon-stimulated LGR2 cAMP reporter – cell-based, HEK293, CRE-luciferase reporter, cherry pick, set 2, dose response (AID 743343); assay type: functional;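 further: transfected cells were stimulated with diluted bursicon conditioned medium after compound addition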
[11] = blockade of melanocortin 4 receptor signaling – cell-based, plate reader, cherry pick, counter-screen for LGR2 antagonist project, dose response (AID 743444); assay type: functional;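 further: transfected HEK 293 cells stimulated with alpha-MSH peptide; potency of inhibitors of the alpha-MSH evoked signal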
[12] = bead-based luminescence quenchers, dual-tagged ARNT – biochemical, AlphaScreen, cherry-pick, artefact control for ARNT-TACC3 interaction inhibitor project, dose response (AID 651705); assay type: functional;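 further: AlphaScreen bead proximity signal that flags compounds interfering with the detection technology; potency reflects signal decrease which marks the compound as an assay artifact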
[13] = inhibition of ADAM10 peptide cleavage – biochemical, FRET peptide substrate, recombinant human ADAM10, selectivity assay for ADAM17 exosite inhibitor project, dose response (AID 743259);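 further: ADAM10 enzyme cleaving a FRET peptide substrate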
[14] = target: Disintegrin and metalloproteinase domain-containing protein 17 (Homo sapiens, UniProt P78536); experiment: exosite inhibitors of ADAM17, dose response, biochemical (AID 743260)
[15] = target: T6, Low molecular weight phosphotyrosine protein phosphatase (Homo sapiens, UniProt P24666); assay type: functional; conditions: read-out: IC50_Mean
[16] = target: T6, Low molecular weight phosphotyrosine protein phosphatase; assay type: functional; conditions: read-out: IC50_Mean; remark: listed apart in the source
[17] = general mammalian cell viability loss – inhibitor set, cherry-pick, set 2, cytotoxicity control for miR-122 modulator project, dose response (AID 720697); assay type: functional, cell-based
[18] = viability loss in LCL cells – cell-based, plate reader, dry powder, set 2, cytotoxicity control, dose response (AID 624367); assay type: functional
[19] = activation of miR-122 Renilla sensor silencing – cell-based, Huh7 psiCHECK-miR122, Renilla luciferase, cherry-picked, dose response (AID 651956); assay type: functional;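 further: huh7 hepatoma cells stably carrying a psiCHECK-2 miR-122 sensor plasmid; renilla luciferase signal reporting endogenous miR-122 activity after 48 h compound exposure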
[20] = inhibitors of EBV LMP1 NF-kappaB signaling – cell-based, luciferase reporter, luminescence, dry powder, set 2, dose response (AID 624376); assay type: functional
[21] = OVCAR8 cell viability loss – plate reader, dry powder samples, PAX8 project, dose response (AID 743197); assay type: functional, cell-based; conditions: OVCAR-8
[22] = A2780 cell killing – plate reader, dry powder samples, cytotoxicity control, dose response (AID 743046); assay type: functional, cell-based
[23] = target: Sphingosine 1-phosphate receptor 1 (Homo sapiens, UniProt P21453); experiment: Late-stage counterscreen for antagonists of kappa opioid receptor 1 (OPRK1): fluorescence-based cell-based dose response assay to identify antagonists of Sphingosine 1-Phosphate Receptor 1 (S1P1).; assay type: functional
[24] = target: Delta-type opioid receptor (Homo sapiens, UniProt P41143); experiment: Late-stage results from the probe development effort to identify antagonists of OPRK1: fluorescence-based cell-based dose response OPRD1 counterscreen, Set 2.; assay type: functional
Mu-type opioid receptor [25] = target: T1, Mu-type opioid receptor; experiment: Late-stage results from the probe development effort to identify antagonists of OPRK1: luminescence-based cell-based dose response OPRM1 counterscreen, Set 2.; assay type: functional
[26] = target: Kappa-type opioid receptor (Homo sapiens, UniProt P41145); experiment: Late-stage fluorescence-based cell-based dose response assay for antagonists of kappa opioid receptor 1 (OPRK1).; assay type: functional

T2 sequence (Q79MP6 whole entry): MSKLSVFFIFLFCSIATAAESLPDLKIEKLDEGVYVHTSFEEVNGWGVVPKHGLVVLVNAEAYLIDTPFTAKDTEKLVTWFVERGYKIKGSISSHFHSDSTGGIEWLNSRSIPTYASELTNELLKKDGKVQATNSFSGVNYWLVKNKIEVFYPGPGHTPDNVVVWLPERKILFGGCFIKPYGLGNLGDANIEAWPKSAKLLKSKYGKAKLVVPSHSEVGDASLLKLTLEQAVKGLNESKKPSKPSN
T1 sequence (P35372 whole entry): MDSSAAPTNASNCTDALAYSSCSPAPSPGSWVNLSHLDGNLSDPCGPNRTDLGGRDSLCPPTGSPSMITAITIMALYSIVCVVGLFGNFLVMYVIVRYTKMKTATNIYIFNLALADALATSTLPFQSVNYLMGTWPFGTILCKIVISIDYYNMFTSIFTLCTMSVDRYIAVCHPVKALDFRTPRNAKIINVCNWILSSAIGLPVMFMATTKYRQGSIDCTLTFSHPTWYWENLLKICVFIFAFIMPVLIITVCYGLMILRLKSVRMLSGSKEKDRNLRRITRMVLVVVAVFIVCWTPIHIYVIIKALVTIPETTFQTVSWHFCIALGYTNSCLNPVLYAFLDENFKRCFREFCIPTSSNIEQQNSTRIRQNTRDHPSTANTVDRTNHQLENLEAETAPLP
T6 sequence (P24666 whole entry): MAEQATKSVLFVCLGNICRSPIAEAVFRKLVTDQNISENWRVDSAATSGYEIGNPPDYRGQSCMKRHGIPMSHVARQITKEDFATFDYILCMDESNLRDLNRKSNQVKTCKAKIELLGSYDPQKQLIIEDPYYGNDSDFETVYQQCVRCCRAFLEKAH
Chain of Beta-lactamase (Salmonella choleraesuis (strain SC-B67), UniProt Q5J463) (Q5J463 whole entry): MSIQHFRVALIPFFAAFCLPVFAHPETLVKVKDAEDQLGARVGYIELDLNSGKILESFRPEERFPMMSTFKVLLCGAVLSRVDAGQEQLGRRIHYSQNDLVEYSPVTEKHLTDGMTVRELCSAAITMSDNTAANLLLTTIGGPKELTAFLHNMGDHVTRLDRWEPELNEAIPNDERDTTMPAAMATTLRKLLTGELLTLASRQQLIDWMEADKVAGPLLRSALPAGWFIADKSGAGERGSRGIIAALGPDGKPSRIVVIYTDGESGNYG
Chain of Disintegrin and metalloproteinase domain-containing protein 17 (P78536 whole entry, the tested form may be a part): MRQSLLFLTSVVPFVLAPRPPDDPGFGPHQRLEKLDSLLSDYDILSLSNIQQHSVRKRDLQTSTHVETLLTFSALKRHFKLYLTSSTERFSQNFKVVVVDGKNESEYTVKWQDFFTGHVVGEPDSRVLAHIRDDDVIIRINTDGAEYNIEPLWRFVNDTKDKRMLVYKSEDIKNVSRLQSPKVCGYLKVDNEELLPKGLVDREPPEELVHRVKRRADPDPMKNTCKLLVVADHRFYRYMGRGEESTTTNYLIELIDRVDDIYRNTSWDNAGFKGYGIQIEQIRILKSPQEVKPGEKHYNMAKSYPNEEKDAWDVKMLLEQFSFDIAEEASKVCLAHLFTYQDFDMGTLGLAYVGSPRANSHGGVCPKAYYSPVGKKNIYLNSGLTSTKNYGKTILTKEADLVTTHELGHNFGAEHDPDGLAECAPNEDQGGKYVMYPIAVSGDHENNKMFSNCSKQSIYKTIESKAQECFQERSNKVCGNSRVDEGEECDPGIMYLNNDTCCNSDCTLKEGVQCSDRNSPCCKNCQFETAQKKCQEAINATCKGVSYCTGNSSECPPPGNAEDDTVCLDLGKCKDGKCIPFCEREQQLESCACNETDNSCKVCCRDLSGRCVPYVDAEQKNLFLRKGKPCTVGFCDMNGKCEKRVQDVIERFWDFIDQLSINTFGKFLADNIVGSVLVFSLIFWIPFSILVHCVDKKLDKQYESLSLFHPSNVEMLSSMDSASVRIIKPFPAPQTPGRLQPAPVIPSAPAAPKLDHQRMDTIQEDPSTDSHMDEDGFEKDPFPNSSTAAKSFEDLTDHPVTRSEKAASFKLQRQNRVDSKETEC
Chain of Arf-GAP with SH3 domain, ANK repeat and PH domain-containing protein 1 (Q9ULH1 whole entry, the tested form may be a part): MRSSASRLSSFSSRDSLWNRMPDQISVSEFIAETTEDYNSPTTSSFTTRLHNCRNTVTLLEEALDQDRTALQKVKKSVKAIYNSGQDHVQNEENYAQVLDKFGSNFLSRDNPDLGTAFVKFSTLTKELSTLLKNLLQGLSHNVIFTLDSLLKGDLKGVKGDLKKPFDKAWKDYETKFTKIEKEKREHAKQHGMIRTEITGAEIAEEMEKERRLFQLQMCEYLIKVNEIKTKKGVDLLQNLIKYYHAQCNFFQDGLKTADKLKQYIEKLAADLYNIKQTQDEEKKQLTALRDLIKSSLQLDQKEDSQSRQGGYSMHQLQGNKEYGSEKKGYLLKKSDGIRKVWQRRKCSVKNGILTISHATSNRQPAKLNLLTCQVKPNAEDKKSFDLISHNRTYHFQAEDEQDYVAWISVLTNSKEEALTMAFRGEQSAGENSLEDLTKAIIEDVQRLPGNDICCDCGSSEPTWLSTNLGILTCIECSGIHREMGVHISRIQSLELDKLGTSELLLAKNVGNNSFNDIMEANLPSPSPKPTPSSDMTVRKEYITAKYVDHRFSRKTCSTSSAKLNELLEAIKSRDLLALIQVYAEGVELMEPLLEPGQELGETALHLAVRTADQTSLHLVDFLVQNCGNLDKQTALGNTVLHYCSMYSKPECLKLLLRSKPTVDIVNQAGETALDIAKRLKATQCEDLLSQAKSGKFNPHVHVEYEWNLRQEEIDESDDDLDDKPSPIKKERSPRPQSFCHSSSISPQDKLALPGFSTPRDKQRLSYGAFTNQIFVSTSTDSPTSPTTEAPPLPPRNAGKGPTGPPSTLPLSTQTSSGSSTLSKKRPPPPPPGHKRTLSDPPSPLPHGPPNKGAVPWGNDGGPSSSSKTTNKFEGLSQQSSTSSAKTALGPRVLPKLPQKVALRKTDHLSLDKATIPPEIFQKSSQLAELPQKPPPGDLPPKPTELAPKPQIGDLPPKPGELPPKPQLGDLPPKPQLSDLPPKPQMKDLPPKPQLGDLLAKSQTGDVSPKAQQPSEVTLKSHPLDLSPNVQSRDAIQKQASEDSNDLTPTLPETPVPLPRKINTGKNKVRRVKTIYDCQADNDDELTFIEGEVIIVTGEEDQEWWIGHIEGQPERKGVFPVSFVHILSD
Chain of Sphingosine 1-phosphate receptor 1 (P21453 whole entry): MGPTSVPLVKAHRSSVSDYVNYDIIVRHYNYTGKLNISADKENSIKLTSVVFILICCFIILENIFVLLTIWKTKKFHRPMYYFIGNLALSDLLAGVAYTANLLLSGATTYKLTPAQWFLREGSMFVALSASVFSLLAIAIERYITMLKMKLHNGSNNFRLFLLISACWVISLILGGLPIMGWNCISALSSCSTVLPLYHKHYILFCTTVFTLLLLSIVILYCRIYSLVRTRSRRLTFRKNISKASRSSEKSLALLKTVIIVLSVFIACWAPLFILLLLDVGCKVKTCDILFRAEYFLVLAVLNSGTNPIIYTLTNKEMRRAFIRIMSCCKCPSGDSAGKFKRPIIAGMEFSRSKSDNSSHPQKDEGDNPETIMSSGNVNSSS
Chain of Delta-type opioid receptor (P41143 whole entry): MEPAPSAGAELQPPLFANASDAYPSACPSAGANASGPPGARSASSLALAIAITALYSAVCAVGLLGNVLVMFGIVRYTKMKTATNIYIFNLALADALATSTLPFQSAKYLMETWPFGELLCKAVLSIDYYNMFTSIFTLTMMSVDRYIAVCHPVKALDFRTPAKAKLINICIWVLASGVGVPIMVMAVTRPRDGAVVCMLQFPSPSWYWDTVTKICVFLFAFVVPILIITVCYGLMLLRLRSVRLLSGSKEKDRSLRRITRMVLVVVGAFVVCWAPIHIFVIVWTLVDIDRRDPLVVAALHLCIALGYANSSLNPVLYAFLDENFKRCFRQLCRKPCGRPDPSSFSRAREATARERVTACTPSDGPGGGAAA
Chain of 5-hydroxytryptamine receptor 2A (P35363 whole entry): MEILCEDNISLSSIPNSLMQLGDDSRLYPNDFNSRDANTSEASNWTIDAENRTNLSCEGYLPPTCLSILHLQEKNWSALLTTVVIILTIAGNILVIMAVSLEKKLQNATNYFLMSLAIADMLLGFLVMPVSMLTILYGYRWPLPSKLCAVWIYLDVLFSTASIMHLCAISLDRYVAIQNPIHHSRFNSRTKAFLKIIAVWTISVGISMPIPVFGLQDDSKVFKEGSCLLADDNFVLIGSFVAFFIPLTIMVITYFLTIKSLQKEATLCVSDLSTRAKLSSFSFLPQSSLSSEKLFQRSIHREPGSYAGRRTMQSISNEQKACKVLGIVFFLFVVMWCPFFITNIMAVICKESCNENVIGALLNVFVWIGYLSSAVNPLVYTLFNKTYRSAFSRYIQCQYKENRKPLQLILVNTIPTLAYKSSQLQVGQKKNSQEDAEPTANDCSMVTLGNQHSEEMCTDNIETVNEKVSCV
Chain of fMet-Leu-Phe receptor (P21462 whole entry): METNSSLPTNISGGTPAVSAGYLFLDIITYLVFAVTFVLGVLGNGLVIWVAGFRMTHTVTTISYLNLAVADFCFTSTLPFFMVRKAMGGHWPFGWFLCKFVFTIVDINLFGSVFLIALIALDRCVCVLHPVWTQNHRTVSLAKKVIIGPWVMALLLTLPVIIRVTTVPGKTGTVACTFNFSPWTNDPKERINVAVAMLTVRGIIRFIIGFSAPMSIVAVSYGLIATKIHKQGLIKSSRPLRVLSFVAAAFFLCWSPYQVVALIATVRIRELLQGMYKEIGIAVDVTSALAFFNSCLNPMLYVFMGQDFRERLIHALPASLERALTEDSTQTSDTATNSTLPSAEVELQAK

Which IC50 [1] does the source give for `O=C(Cn1cncc1-c1ccc([N+](=O)[O-])cc1)Nc1cccc2ccccc12` here?
Its IC50 is 28.1 µM (inactive).

Which results are given for `O=C(C[n+]1cc(-c2ccccc2)n2c1CCC2)Nc1nc(-c2ccc(F)cc2)cs1`?
EC50 [2]: 76.1 µM (inactive); EC50 (Mu-type opioid receptor [3]): 92.5 µM (inactive)

For `CC(C)(C)c1ccc(COc2ccsc2C(=O)O)cc1`, which IC50 (Beta-lactamase [4]) is on record?
Its IC50 is > 59.6 µM (inactive).

And the IC50 (Beta-lactamase [5])?
The IC50 was > 59.6 µM (inactive).

And the IC50 (Beta-lactamase [6])?
The IC50 was > 59.6 µM (inactive).

What about the IC50 (Leucine aminopeptidase) of the same compound?
The IC50 was 11.5 µM (active).

And the EC50 [7]?
The EC50 was 137 µM (active).

With `COc1ccc(OC)c(NC(=O)C2C3CCC(C3=C(C)C)C2C(=O)O)c1` (centres undefined) as the compound, how does the Ki (fMet-Leu-Phe receptor) read?
The Ki was > 66.7 µM (inactive).

Which IC50 (cells) does the source give for `Cc1ccnc(NC(=O)c2cccc(S(=O)(=O)N3CCN(c4ccccc4)CC3)c2)c1` here?
Its IC50 is > 67.5 µM (inactive).

And the IC50 [8]?
Its IC50 is > 67.5 µM (inactive).

And the AC50 [9]?
The AC50 was > 52 µM (inactive).

What about the AC50 [10] of the same compound?
Its AC50 is 12.4 µM (active).

And the AC50 [11]?
The AC50 was 14.6 µM (active).

With `O=C(Nc1ccc(F)cc1)c1nc[nH]c1C(=O)O` as the compound, how does the AC50 [12] read?
Its AC50 is 105 µM (active).

What does the source list for `COC(=O)C1=C(c2cccc(OCc3ccccc3)c2)C[C@@H]2CC[C@H]1N2C(=O)NCCOc1ccc(OC)cc1`?
IC50 [13]: 12.1 µM (inactive); IC50 [14]: > 69.5 µM (inactive)

Which results are given for `COCCNc1nc(NCc2cccc(OC)c2OC)c2sccc2n1`?
IC50 [15]: 12.8 µM (active); IC50 [16]: 8.2 µM (active)

Which AC50 [17] does the source give for `C[C@H](CO)N1C[C@H](C)[C@H](CN(C)C(=O)NC2CCCCC2)Oc2cc(/C=C/c3ccccc3)ccc2S1(=O)=O` here?
The AC50 was 15.9 µM (active).

And the AbsAC35 [18]?
The AbsAC35 was 53.47 µM.

And the AC50 [19]?
The AC50 was 19.1 µM (active).

Which AbsAC35 [20] does the source give for `Cc1noc(C)c1S(=O)(=O)Nc1ccc2c(c1)C(=O)N([C@@H](C)CO)C[C@H](C)[C@@H](CN(C)Cc1ccc(C(F)(F)F)cc1)OCCCC[C@@H](C)O2` here?
Its AbsAC35 is 101.91 µM.

Which AC50 [21] does the source give for `COc1ccc(-c2cn(CC[C@H]3CC[C@@H](NC(=O)Cc4ccccn4)[C@@H](CO)O3)nn2)cc1` here?
Its AC50 is > 70 µM (inactive).

And the AC50 [22]?
Its AC50 is 0.315 µM (active).

With `CCOC(=O)c1ccc(N2CC3CCCCN3C2c2cccc(OC)c2O)cc1` (centres undefined) as the compound, how does the IC50 [23] read?
Its IC50 is > 50 µM (inactive).

And the IC50 [24]?
Its IC50 is > 50 µM (inactive).

And the IC50 (Mu-type opioid receptor [25])?
Its IC50 is > 50 µM (inactive).

And the IC50 [26]?
The IC50 was 6.85 µM (active).
